For one cell line, relative viability results are on record in the supplement of paper PMC10307832.

What all share (test): relative viability (nuclei count vs DMSO), 5 days (fraction); higher = more cells survive
Compound in the assay “Obatoclax + Foretinib”: COC1=CC(c2cc3ccccc3[nH]2)=N/C1=C\c1[nH]c(C)cc1C [Obatoclax] + COc1cc2c(Oc3ccc(NC(=O)C4(C(=O)Nc5ccc(F)cc5)CC4)cc3F)ccnc2cc1OCCCN1CCOCC1 [Foretinib] (partner 0.25 µM)
In outline: (§1)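 Lung cancer cell lines were pin-tool dosed in 1536-well plates on the day after seeding, with either a lone drug or a fixed anchor-drug dose plus five library-drug doses (not always all listed) in √10 steps. Nuclei were counted on 4× images after 5 days. Relative viability is the ratio of treated-well to vehicle-well nuclei counts, with each value a median of duplicate plates.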

Compound in assay [1]: CC1=CC(=NN1)NC2=CC(=NC(=N2)/C=C/C3=CC=CC=C3)N4CCN(CC4)C + CCNC(=O)c1noc(-c2cc(C(C)C)c(O)cc2O)c1-c1ccc(CN2CCOCC2)cc1 [Luminespib] (partner 0.01 µM)
A digest of the protocol: as §1

Compound in assay [2]: CC1=CC(=NN1)NC2=CC(=NC(=N2)/C=C/C3=CC=CC=C3)N4CCN(CC4)C + CC(C)C[C@H](NC(=O)[C@H](Cc1ccccc1)NC(=O)c1cnccn1)B(O)O [Bortezomib] (partner 0.002 µM)
In outline:
as §1

Compound in assay [3]: CC1=CC(=NN1)NC2=CC(=NC(=N2)/C=C/C3=CC=CC=C3)N4CCN(CC4)C + O=C(CCCCCCC(=O)Nc1ccccc1)NO [Vorinostat] (partner 1 µM)
A digest of the protocol: as §1

For the cell line NCI-H650, the relative viability with Obatoclax + Foretinib (first compound 0.01 µM) was determined as 1.01; with Obatoclax + Foretinib (first compound 0.03162 µM), 0.986; in the assay with Obatoclax + Foretinib (first compound 0.3162 µM), 0.717; with Obatoclax + Foretinib (first compound 1 µM), 0.38; in assay [1] (first compound 0.253 µM), 0.915; in assay [1] (first compound 0.8 µM), 0.813. The relative viability amounted to 0.411 in assay [1] (first compound 2.53 µM); 0.111 in assay [1] (first compound 8 µM); 0.839 in assay [2] (first compound 0.08 µM); 1.01 in assay [2] (first compound 0.253 µM); 0.673 in assay [2] (first compound 0.8 µM); 0.364 in assay [2] (first compound 2.53 µM). Moreover, the relative viability in assay [2] (first compound 8 µM) turned out to be 0.187; in assay [3] (first compound 0.08 µM) it was 0.412; in assay [3] (first compound 0.253 µM), 0.717; in assay [3] (first compound 0.8 µM), 0.495; in assay [3] (first compound 2.53 µM), 0.409; in assay [3] (first compound 8 µM), 0.174.
